Data on two molecules can be found in patent publication US5756327A, “Recombinant mycobacterial isoleucyl-tRNA synthetase genes, tester strains and assays” (priority 1995, dated 1998).

The target in series [1] is TB IleRS (M. tuberculosis isoleucyl-tRNA synthetase) (Mycobacterium tuberculosis, UniProt P9WFV3). Description: tRNA charging (aminoacylation) assay, sensitivity of TB IleRS to PMA. The series is classed as biochemical. Conditions: concentrations of up to 250 μM. The protocol: The sensitivity of the TB IleRS for the drug pseudomonic acid A (PMA; a specific inhibitor of some prokaryotic IleRS enzymes) was tested.
The conditions of the charging assay were as follows: At time zero, 10 μl of crude extract or purified protein was added to a reaction mixture containing 50 mM HEPES, pH 7.5, 8 mM MgCl2, 20 μM tritiated isoleucine (New England Nuclear) with a specific activity of 2200 cpm/pmol, 10 mM KF, 4 mM ATP, and 0.1 mM total tRNA from either E. coli (Sigma) or yeast (S. cerevisiae, Boehringer-Mannheim Biochemicals). At various times, 10-20 μl of the reaction were withdrawn, spotted onto Whatman 3 MM cellolose filter diskettes, and the reaction was quenched by placing the filters in 5% ice cold TCA (trichloroacetic acid). Diskettes were washed three times with ice cold 5% TCA, once with 5% ice cold ethanol, once with ether, and air dried. The amount of [^3 H]-isoleucine incorporated into tRNA bound to the filter was determined by scintillation counting in 5 mls Betafluor (Packard 1600 TR scintillation counter).

The test system of the next series is CC[C@H](C)[C@H](N)C(=O)O. Description: cells, lysate or membranes named. To be noted: pH 7.5.

Sequence of TB IleRS (M. tuberculosis isoleucyl-tRNA synthetase) (P9WFV3 2-1032): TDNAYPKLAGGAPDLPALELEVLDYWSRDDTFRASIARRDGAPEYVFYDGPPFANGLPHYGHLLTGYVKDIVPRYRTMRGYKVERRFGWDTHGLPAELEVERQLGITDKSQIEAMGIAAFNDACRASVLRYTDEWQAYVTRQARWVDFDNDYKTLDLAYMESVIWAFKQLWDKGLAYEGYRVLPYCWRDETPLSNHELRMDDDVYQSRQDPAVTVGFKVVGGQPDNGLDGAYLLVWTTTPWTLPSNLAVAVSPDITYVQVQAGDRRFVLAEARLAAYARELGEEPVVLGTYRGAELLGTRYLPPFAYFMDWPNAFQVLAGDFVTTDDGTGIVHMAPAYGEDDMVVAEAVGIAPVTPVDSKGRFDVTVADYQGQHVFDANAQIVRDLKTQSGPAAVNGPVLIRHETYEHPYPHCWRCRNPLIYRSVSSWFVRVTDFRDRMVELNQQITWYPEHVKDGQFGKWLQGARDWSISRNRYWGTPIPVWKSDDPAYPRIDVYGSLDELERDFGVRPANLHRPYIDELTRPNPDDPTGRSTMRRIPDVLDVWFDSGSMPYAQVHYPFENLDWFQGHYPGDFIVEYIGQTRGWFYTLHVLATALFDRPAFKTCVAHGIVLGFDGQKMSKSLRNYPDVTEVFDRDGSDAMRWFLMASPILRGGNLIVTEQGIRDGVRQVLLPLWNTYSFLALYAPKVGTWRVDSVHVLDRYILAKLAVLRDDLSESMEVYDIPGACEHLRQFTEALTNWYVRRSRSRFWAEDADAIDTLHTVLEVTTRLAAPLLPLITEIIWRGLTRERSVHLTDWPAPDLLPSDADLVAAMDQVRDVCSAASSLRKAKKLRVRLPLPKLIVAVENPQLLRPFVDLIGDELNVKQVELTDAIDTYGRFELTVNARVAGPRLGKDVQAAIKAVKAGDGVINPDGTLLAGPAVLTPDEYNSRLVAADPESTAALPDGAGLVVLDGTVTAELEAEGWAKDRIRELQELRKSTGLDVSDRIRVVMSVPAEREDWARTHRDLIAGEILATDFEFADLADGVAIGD

Turning to `C/C(=C\C(=O)OCCCCCCCCC(=O)O)C[C@@H]1OC[C@H](C[C@@H]2O[C@H]2[C@@H](C)[C@H](C)O)[C@@H](O)[C@H]1O` [PMA, pseudomonic acid A], in series [1], the “inhibition of the charging activity of the enzyme” value is given as “did not inhibit”.
As usually defined, the Km is the concentration of substrate that gives half-maximal velocity. Take “purified TB GST-IleRS fusion protein with or without thrombin cleavage (Mycobacterium tuberculosis H37Rv)”: the Km in the series on CC[C@H](C)[C@H](N)C(=O)O is 1.1 ± 0.2 µM.
